Laboratory results taken from EP0358880B1, “Use of retinoids” (F. HOFFMANN-LA ROCHE AG, priority 1988, dated 1990).
Marks after values point to notes of the source that are not given here.

How the values were obtained:
[1] = system: Wrinkles Produced in Hairless Mice by UVB-Irradiation; experiment: Effect on wrinkles produced in hairless mice by UVB irradiation (skin replica, visual Wrinkle Index); assay type: in vivo
Description: (§1) Hairless mice (HRS/J strain, Jackson Labs, 5-7 weeks old at the start of the experiments) were irradiated three times per week with a bank of 8 Westinghouse® Sunlamps (FS40) placed about 20cm above the animals. The radiation dose was controlled by an International Light Model IL844A Phototherapy Exposure Control and a detector. The UVB dosing schedule was such that individual doses, seldom exceeding 0.06J/cm², caused minimal erythema but no burning or scarring. There was significant elastosis, detected by histology, after a total dose of about 3.5J/cm²: this was confirmed in measurements of elastin in whole skin by means of a radioimmunoassay for desmosine. Desmosine is found in elastin hydrolysates and is derived from crosslinks in the elastin molecule; it is a reliable index of total elastin. Typically, desmosine increased by about 2-3 fold after 3.5J/cm² of UVB irradiation. To effect repair of the dermal damage, the UVB irradiation was discontinued and animals were treated three times per week with various concentrations of the compounds of formula I dissolved in acetone. Solutions were made up freshly every week at concentrations such that the dose was delivered in 100µl acetone and applied topically to an area of about 10 cm² on the back of the animal with a plastic pipette; a control group treated with acetone alone was also included.
One skin replica for each animal was taken of these areas using a liquid dental impression material (SILFLO® - Flexico Developments Ltd., England). Wrinkles appeared in these impressions as ridges which cast a shadow when illuminated with low angle light. A characteristic of the wrinkling pattern was the occurrence of the ridges in a regularly-spaced array about 2-mm apart. The extent of wrinkling was visually assessed using this line pattern and assigned a value (Wrinkle Index) of zero to 4 with zero representing complete effacement of wrinkling and 4 representing the maximum degree of wrinkling. It was observed that compounds of formula I caused a dose-dependent effacement of the wrinkles with ED₅₀ values in the microgram range.

[2] = system: UVB-Induced Dermal Damage in the Hairless Mouse; experiment: Repair of UVB-induced dermal damage in the hairless mouse (repair zone by histology, Luna's stain, image analyzer); assay type: in vivo, Hairless mice (HRS/J strain); conditions: three times per week, 10 weeks, total area per twenty microscopic fields
Description: as §1, with “included. After 10 weeks of treatment the animals were sacrificed, skin samples were taken and processed by standard methods. A six µm [micron] section from each animal was stained for elastin with Luna's stain and the degree of repair measured quantitatively. In this model, repair is defined by the appearance of a normalized dermis extending from the epidermis down to the layer of compressed elastin. The extent of repair was reflected by the width of this zone. In these studies, the area of the zone on a standard length of histological section was measured by an image analyzer and the results are given as total area in mm² per twenty microscopic fields. Data was analyzed by Student's t-test. The results are given in Table I. In Table I, and Table II each group dosed at a particular concentration of compound of formula I contained six to ten animals.” for “included.”

`C/C(=C\c1ccc(SC(=O)N(C)C)cc1)c1ccc2c(c1)C(C)(C)CCC2(C)C` [Compound A] was tested. Which “Wrinkle Index” value ([1]; 0.1 µg topical, scale zero (complete effacement) to 4 (maximum wrinkling)) did it give?
Its value is 1.4 +/- 0.5.

What about the “Wrinkle Index” value ([1]; 0.5 µg topical, scale zero to 4, P < 0.05 vs Control) of the same compound?
The value was 1.0 +/- 0.3*.

And the “Wrinkle Index” value ([1]; 2.0 µg topical, scale zero to 4, P < 0.01 vs Control)?
Its value is 0.8 +/- 0.2**.

And the “Wrinkle Index” value ([1]; 10.0 µg topical, scale zero to 4, P < 0.001 vs Control)?
Its value is 0.3 +/- 0.1***.

What about the “Wrinkle Index” value ([1]; 50.0 µg topical, scale zero to 4, P < 0.001 vs Control) of the same compound?
Its value is 0.3 +/- 0.1***.

And the “Repair Zone” value ([2]; 0.1 µg topical in 100 µl acetone)?
The value was 0.005 +/- 0.001 mm².

What about the “Repair Zone” value ([2]; 0.5 µg topical in 100 µl acetone) of the same compound?
The value was 0.006 +/- 0.003 mm².

And the “Repair Zone” value ([2]; 2.0 µg topical in 100 µl acetone, P < 0.05 vs Control)?
The value was 0.021 +/- 0.003* mm².

What about the “Repair Zone” value ([2]; 10.0 µg topical in 100 µl acetone) of the same compound?
Its value is 0.015 +/- 0.004 mm².

What about the “Repair Zone” value ([2]; 50.0 µg topical in 100 µl acetone, P < 0.05 vs Control) of the same compound?
Its value is 0.025 +/- 0.007* mm².
